Among the data in PubChem BioAssay AID743230 are IC50 values, retold here.

This test deals with cofactor-independent phosphoglycerate mutase (iPGM), Brugia malayi / Caenorhabditis elegans. Description: nematode iPGM enzyme inhibitors, biochemical, cofactor-independent, HTS (AID 743230). Conditions: recombinant nematode iPGM, coupled NADH absorbance decline.

Molecules are shown by their SMILES.

`CCc1cc2c[n+](C3CCCCC3)sc2s1`: the concentration for half-maximal inhibition (IC50) (as a rule, the midpoint of a concentration-inhibition curve) was 10.4 µM.

On to `Nc1cc2cccnc2c2ncccc12`, for which the IC50 is 38.3 µM.
